Where a SMILES comes first, the peptide text is derived from it. [ ]: non-standard residue; d: D form. The star is where a group is joined. Bz = O=C(c1ccccc1)*; NPr2 = CCCN(CCC)*
Key:
[1] = test system: human abdominal skin ex vivo; assay: Stimulation of pigmentation in human abdominal skin ex vivo (Fontana-Masson melanin quantification); type: cell-based; conditions: topical
Protocol: Following declaration of Helsinki principles (DoH-Oct2013, World Medical Association, Ferney-Voltaire, France), human skin samples were obtained from elective plastic surgery after informed consent was obtained. For the two experiments shown in Figure 2, Figure 3 and Figure 4, we had one person with an individual topology angle (ITA°) of 18, and one person with an ITA° of 39 [69]. The skin samples were cut in pieces of 8 × 3 mm and cultured up to day 6. Skin samples were cultured in an air–liquid interface in a perforated ring of stainless steel in contact with culture medium (modified Williams’ E medium). The culture medium was renewed every three days (i.e., day 0–3). Compounds were added daily in DMSO at 4 µL volume. At day 6, the skin samples were fixed in formalin, embedded in paraplast, and cut at the microtome for histochemical staining and consequent image analysis. Six skin biopsies were used for each single treatment.
Two skin biopsies for each treatment were weighed and, in each case, reduced in the dermal portion, in order to have approximately the same weight for all of them. Samples were then washed and processed with methylthiazolyldiphenyl-tetrazolium bromide (MTT). The color intensity, that is directly proportional to skin vitality, was measured with a plate reader at a wavelength of 570 nm. For melanin quantification, skin sections were stained with a modified Fontana-Masson stain that dyes melanin argentaffin granules in black/dark grey. The amount of melanin present in each slide was evaluated by estimating grey intensity and distribution within the sections using ImageJ application (NIH-USA). Two slides of each skin sample were processed by image acquisition and related analysis (i.e., 12 images for each treatment).
Figure 2 Stimulation of pigmentation by MC1R-agonist peptides ex vivo. Melanin was quantified on skin sections using ImageJ software (NIH, USA). Human abdominal skin was topically treated with peptides at various concentrations for six days. * p < 0.05 vs vehicle by unpaired Student’s t-test. […]

[2] = target: T1, human recombinant MC1 receptor (Homo sapiens, UniProt Q01726); assay: MC1R activation, cAMP HTRF assay in CHO-K1 cells; type: cell-based
T1 construct: host or cells: CHO-K1
T1 sequence (Q01726 whole entry): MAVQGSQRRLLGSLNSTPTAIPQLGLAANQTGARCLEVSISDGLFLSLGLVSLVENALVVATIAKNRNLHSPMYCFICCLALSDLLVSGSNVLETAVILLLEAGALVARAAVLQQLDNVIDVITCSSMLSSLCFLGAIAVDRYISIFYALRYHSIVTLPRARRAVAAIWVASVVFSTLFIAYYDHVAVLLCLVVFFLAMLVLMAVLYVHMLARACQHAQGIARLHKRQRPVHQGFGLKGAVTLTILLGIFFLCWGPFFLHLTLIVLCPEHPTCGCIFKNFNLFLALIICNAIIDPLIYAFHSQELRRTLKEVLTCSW
Protocol: (§1) MCR-activation assays were performed by means of a cAMP HTRF (homogeneous time resolved fluorescence) assay for Gs-coupled receptors (cAMP Gs dynamic kit, Cisbio bioassays, 62AM4PEC). CHO-K1 cells expressing human recombinant MC1 receptor (EuroscreenFast, Gosselies, Belgium) (or MC2R, MC3R, MC4R, MC5R) were grown prior to the test in media without antibiotic. They were detached by gentle flushing with PBS-EDTA (5 mM EDTA), recovered by centrifugation, and resuspended in assay buffer (5 mM KCl, 1.25 mM MgSO4, 124 mM NaCl, 25 mM HEPES, 13.3 mM Glucose, 1.25 mM KH2PO4, 1.45 mM CaCl2, 0.5 g/L BSA, supplemented with 1 mM IBMX). Dose response curves were performed in parallel with the reference compounds. For agonist test (96-well), 12 µL of cells were mixed with 12 µL of the test compound diluted at increasing concentrations in assay buffer, and then incubated for 30 min at room temperature. After addition of the lysis buffer and 1 h incubation, fluorescence signal was measured, according to the manufacturer’s specifications, with the homogeneous time resolved fluorescence (HTRF) kit.

OP3R = target: T2, OP3R (Homo sapiens, UniProt P35372); assay: OP3R (mu opioid) activation, GTPγS scintillation proximity assay; type: biochemical; conditions: eight concentrations, 0.01 to 100,000 nM
T2 construct: host or cells: CHO-K1 (membrane preparations)
T2 sequence (P35372 whole entry): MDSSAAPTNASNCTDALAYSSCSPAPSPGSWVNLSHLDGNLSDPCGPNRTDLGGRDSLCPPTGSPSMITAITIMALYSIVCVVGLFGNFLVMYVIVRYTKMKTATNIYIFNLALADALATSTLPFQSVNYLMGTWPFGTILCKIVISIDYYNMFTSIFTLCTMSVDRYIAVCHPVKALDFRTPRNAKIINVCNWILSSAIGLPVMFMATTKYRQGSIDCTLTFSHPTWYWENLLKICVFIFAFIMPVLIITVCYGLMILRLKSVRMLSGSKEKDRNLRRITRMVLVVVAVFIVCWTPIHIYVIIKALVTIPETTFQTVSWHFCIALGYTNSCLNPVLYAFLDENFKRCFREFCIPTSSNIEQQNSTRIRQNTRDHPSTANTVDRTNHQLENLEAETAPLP
Protocol: (§2) Melatonin (MT1R and MT2R) and opioid receptor (OP1R, OP2R, and OP3R, corresponding to human delta, kappa, and mu opioid receptors) activation assays were performed by means of GTPγS scintillation proximity assays. For agonist testing, membrane preparations from CHO-K1 cells expressing each receptor (EuroscreenFast, Gosselies, Belgium) were mixed with guanosine diphosphate (GDP) (v/v). In parallel, GTPγ[^35S] (PerkinElmer, NEG030X, 0.1 nM final assay concentration) was mixed with PVT-WGA beads (Perkin Elmer, RPNQ001, 0.5 mg/well final assay density) (v/v) just before starting the reaction. The following reagents were then successively added in the wells of an Optiplate (Perkin Elmer): A total of 50 µL of test or reference ligand diluted in assay buffer, 10 µL of assay buffer (20 mM HEPES pH 7.4; 100–200 mM NaCl, 10 µg/mL saponin, MgCl2 at optimized concentration for the specific receptor, 0%–0.1% BSA), 20 µL of the membranes: GDP mix, and 20 µL of the GTPγ[^35S]: Beads mix. The plates were covered with a top seal, mixed on an orbital shaker for 2 min, and then incubated for 1 h at room temperature. Then the plates were centrifuged for 10 min at 2000 rpm, incubated at room temperature for 1 h, and counted for 1 min/well with a PerkinElmer TopCount™ reader.

[3] = test system: B16 murine melanoma cells; assay: Total melanin synthesis in mouse melanoma cells; type: cell-based; conditions: 72 h incubation
Protocol: B16 murine melanoma cells, which are highly responsive towards stimulation with alpha-melanocyte stimulating hormone (alpha-MSH), were grown in Dulbecco’s modified eagle medium (DMEM) with 1 g/L glucose supplemented with 3 g/L glucose, 2 mM L-glutamine, 50 U/mL Penicillin, 50 µg/mL Streptomycin, and 10% fetal calf serum. They were kept at 37 °C in a 5% CO2 atmosphere. Cells were grown for 24 h and then medium was replaced with medium containing the test or reference (NDP-alpha-MSH) compounds. After 72 h, total (intracellular and extracellular) melanin content was determined by absorbance spectroscopy at 405 nm. The results were quantified against a melanin standard curve.
Figure 1 Total melanin synthesis in mouse melanoma cells stimulated with MC1R-agonist peptides. MC1R-agonist peptides were incubated at various concentrations together with the near confluent mouse melanoma cell line B16F10. NDP-alpha-MSH at 100 nM was used as the reference and set to 100% melanin (red line). Error bars represent standard error of the mean of three experiments.

OP2R = target: T3, OP2R (Homo sapiens, UniProt P41145); assay: OP2R (kappa opioid) activation, GTPγS scintillation proximity assay; type: biochemical; conditions: eight concentrations, 0.01 to 100,000 nM
T3 construct: host or cells: CHO-K1 (membrane preparations)
T3 sequence (P41145 whole entry): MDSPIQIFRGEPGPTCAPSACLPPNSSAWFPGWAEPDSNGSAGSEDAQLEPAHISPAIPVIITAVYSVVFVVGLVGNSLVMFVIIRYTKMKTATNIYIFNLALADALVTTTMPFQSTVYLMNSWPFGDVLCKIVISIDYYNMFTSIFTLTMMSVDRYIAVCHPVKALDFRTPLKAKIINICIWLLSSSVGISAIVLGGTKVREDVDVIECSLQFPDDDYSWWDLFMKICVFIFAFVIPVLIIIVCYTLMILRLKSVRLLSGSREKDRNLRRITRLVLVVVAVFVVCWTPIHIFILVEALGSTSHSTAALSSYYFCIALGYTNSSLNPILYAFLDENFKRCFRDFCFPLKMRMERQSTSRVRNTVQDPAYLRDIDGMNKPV
Protocol: as §2

MC4R = target: T4, MC4R (Homo sapiens, UniProt P32245); assay: MC4R activation, cAMP HTRF assay in CHO-K1 cells; type: cell-based; conditions: eight concentrations, 0.01 to 100,000 nM
T4 construct: host or cells: CHO-K1
T4 sequence (P32245 whole entry): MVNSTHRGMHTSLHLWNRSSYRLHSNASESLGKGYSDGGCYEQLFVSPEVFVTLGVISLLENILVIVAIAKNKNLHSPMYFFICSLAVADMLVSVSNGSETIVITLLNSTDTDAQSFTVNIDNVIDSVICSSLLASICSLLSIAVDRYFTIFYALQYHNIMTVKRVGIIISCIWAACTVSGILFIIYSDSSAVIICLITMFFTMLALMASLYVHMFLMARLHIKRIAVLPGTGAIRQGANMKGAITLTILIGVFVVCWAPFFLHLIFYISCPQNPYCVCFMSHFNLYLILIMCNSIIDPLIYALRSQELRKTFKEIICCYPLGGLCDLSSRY
Protocol: as §1

CCCN(CCC)C(=O)[C@@H](Cc1c[nH]c2ccccc12)NC(=O)[C@H](CCCNC(=N)N)NC(=O)[C@@H](Cc1ccccc1)NC(=O)[C@H](Cc1c[nH]cn1)NC(=O)CNC(=O)c1ccccc1 [Peptide 4] (Bz-GH[dF]R[dW]-NPr2)
Stimulation of pigmentation compared to vehicle-treated control tissue ([1]; 200 µM peptide, six days): up to 21%
Concentration of optimal activity for pigmentation enhancement ([1]; human abdominal skin ex vivo): 30 µM
EC50 [2]: 0.42 nM
EC50 (OP3R): > 100000 nM
Concentration at which maximal melanin synthesis activity comparable to 100 nM NDP-alpha-MSH is reached [3]: around 12.3 nM
EC50 (OP2R): > 100000 nM
EC50 (MC4R): 136 nM

Source: PMC6940745 (International Journal of Molecular Sciences, 2019)
